Results: publication PMC6423129, “Activity and structural analysis of GRL-117C: a novel small molecule CCR5 inhibitor active against R5-tropic HIV-1s” (Scientific Reports, 2019)

Columns and labels:
CCR5 [1] = biological target: T1, CCR5 (Homo sapiens, UniProt P51681); assay: Inhibition of 125I-RANTES binding to CCR5 (CCR5+ CHO cells)
T1 construct: expressed in transfected cells; host or cells: Chinese hamster ovary (CHO) cells expressing CCR5
Method: (§1) In order to determine whether GRL derivatives block the binding of CC-chemokines to CCR5, we conducted a CC-chemokine binding inhibition assay using ^125I-labeled CC-chemokines (^125I-RANTES, ^125I-MIP-1α, and ^125I-MIP-1β) and CCR5 expressing cells.
(§2) CCR5^+ CHO cells were incubated with (A) ^125I-MIP-1α, (B) ^125I-MIP-1β, and (C) ^125I-RANTES (200 ng/ml) in the presence or absence of varying concentrations of CCR5 inhibitors. Data are shown as means ± s.d. of three independent experiments.
(§3) The inhibition of the binding of ^125I-labeled CC-chemokines ([^125I] RANTES, [^125I] MIP-1α, or [^125I] MIP-1β) to CCR5 by various CCR5 inhibitors was measured as previously described. Calcium flux inhibition assays were also performed with CCR5 inhibitors, and were carried out with the Fluo-4 Direct^TM calcium reagent (Invitrogen); assays were conducted as previously described with minor modifications. In brief, CHO-CCR5 cells (5 × 10^5 cells) were exposed to Fluo-4 Direct^TM calcium reagent for 60 min at 37 °C in RPMI containing 5% FCS. Cells were then incubated with the test compound for 30 min at varying concentrations. Subsequently, cells were exposed to either MIP-1α, MIP-1β, or RANTES at 200 ng/ml. Relative increases in cytosolic Ca^2+ levels after chemokine exposure were determined with flow cytometry (FACSCalibur, BD Biosciences), and IC50 values of cytosolic Ca^2+ mobilization (Ca^2+ flux) were compared with the Ca^2+ flux level in drug-free control samples.

CCR5 [2] = biological target: T1, CCR5; assay: Inhibition of 125I-MIP-1α binding to CCR5 (CCR5+ CHO cells)
Method: as §1, §2, §3

pCH0.6.c/2633 = assay: MAGI assay, T/F HIV-1 clone pCH0.6.c/2633; type: cell-based; settings: Human immunodeficiency virus 1, MAGI
Excerpt: We also examined the activity of GRL-compounds against Transmitter/founder (T/F) HIV-1 viruses. T/F viruses are involved in the initial infection. It is considered that T/F viruses virtually always use CCR5 rather than CXCR4 and infect T cells but not macrophages because […] of CD4 is needed to mediate virus entry for the initial transmission[20]–[24]. […] We obtained four HIV-1 T/F infectious clones. We determined the antiviral activity of GRL-117C, GRL-10007C and GRL-10018C on these HIV-1 clones using MAGI assay.
MAGI-CCR5 cells[18] were maintained in DMEM supplemented with 10% fetal calf serum (FCS: Gemini Bio-Products, West Sacramento, CA), 200 μg/ml G418, 100 μg/ml hygromycin B, and 100 μg/ml zeomycin. The Chinese hamster ovary (CHO) cells expressing CCR5[19] were maintained in Ham’s F-12 medium (GIBCO-BRL, Rockville, MD) supplemented with 10% FCS, 50 U/ml penicillin, and 50 μg/ml streptomycin in the presence of 5 μg/ml blasticidin S hydrochloride. TZM-bl cells were obtained from the NIH AIDS Reagent Program, and were cultured in DMEM with 10% FCS. Peripheral blood mononuclear cells (PBMCs) were isolated from buffy coats of HIV-1 seronegative individuals, and were activated with 10 μg/ml phytohemagglutinin (PHA) prior to use[16]. A laboratory wild-type R5-HIV-1 strain (HIV-1Ba-L)[37] was employed for drug susceptibility assays. AD101 (experimental CCR5 inhibitor) and VVC-resistant HIV clones[7],[8] were provided by Dr. John P. Moore of Cornell University for this study. The clones were propagated with activated PBMCs, and were used for the assays. […] The following reagents (plasmids) for T/F HIV-1 viruses[22],[24] were obtained through the NIH AIDS Reagent Program, Division of AIDS, NIAID, NIH: pCH040.c/2625 (cat# 11740), pCH106.c/2633 (cat# 11743), pTHRO.c/2626 (cat# 11745), and pCH058.c/2960 (cat# 11856), from Dr. John Kappes and Dr. Christina Ochsenbauer.
(§4) Antiviral assays using PHA-PBMCs (p24 assay) were conducted as previously reported[16],[38]. In brief, PHA-PBMCs (1 × 10^6/ml) were exposed to 50 TCID50 of HIV-1Ba-L or drug-resistant HIV-1 infectious clones in the presence or absence of various concentrations of drugs; 10-fold serial dilutions were performed in 96-well microculture plates. The amount of p24 antigens produced by the cells was determined on day 7 in the culture via a commercially available ELISA kit (PerkinElmer). The p24 production level in drug-free control cell cultures was used as the reference. […] Antiviral assays using MAGI-CCR5 cells (MAGI assay) were conducted as previously reported[16],[39]. Single-round virus infection assays using TZM-bl cells infected with R5-HIV-1s (HIV-1YU2, HIV-1KP-5pc, and HIV-1KP-5mvcR)[10] were also conducted as previously described.

[3] = tested on: CC101.19 cl.7 (AD101 resistant); assay: microbe, parasite or virus in culture; type: cell-based, HIV-1
Method: MAGI-CCR5 cells[18] were maintained in DMEM supplemented with 10% fetal calf serum (FCS: Gemini Bio-Products, West Sacramento, CA), 200 μg/ml G418, 100 μg/ml hygromycin B, and 100 μg/ml zeomycin. The Chinese hamster ovary (CHO) cells expressing CCR5[19] were maintained in Ham’s F-12 medium (GIBCO-BRL, Rockville, MD) supplemented with 10% FCS, 50 U/ml penicillin, and 50 μg/ml streptomycin in the presence of 5 μg/ml blasticidin S hydrochloride. TZM-bl cells were obtained from the NIH AIDS Reagent Program, and were cultured in DMEM with 10% FCS. Peripheral blood mononuclear cells (PBMCs) were isolated from buffy coats of HIV-1 seronegative individuals, and were activated with 10 μg/ml phytohemagglutinin (PHA) prior to use[16]. A laboratory wild-type R5-HIV-1 strain (HIV-1Ba-L)[37] was employed for drug susceptibility assays. AD101 (experimental CCR5 inhibitor) and VVC-resistant HIV clones[7],[8] were provided by Dr. John P. Moore of Cornell University for this study. The clones were propagated with activated PBMCs, and were used for the assays. A clinical HIV-1 strain, HIV-1KP-5pc, and an MVC-resistant isolate, HIV-1KP-5mvcR, were prepared and used for antiviral assays, as previously described[10],[38]. The following reagents (plasmids) for T/F HIV-1 viruses[22],[24] were obtained through the NIH AIDS Reagent Program, Division of AIDS, NIAID, NIH: pCH040.c/2625 (cat# 11740), pCH106.c/2633 (cat# 11743), pTHRO.c/2626 (cat# 11745), and pCH058.c/2960 (cat# 11856), from Dr. John Kappes and Dr. Christina Ochsenbauer.
as §4

T1 sequence (P51681 whole entry): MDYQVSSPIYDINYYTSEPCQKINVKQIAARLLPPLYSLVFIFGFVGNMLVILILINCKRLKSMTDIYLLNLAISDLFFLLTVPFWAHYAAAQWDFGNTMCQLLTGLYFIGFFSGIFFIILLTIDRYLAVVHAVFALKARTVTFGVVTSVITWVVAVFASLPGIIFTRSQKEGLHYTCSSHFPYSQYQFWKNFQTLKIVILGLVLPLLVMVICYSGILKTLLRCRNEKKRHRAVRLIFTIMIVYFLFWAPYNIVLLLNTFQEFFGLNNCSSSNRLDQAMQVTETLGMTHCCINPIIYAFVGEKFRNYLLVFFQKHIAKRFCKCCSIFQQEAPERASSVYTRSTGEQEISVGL

Q: With `C=CCN(C(=O)OCc1ccc([N+](=O)[O-])cc1)C1CC2CCC(C1)N2CCC(C)(CN(C)S(=O)(=O)c1ccccc1)c1ccccc1` (stereo not drawn) [GRL-117C] as the compound, how does the EC50 (CCR5 [1]) read?
A: Its EC50 is 121 nM.

Q: What about the EC50 (CCR5 [2]) of the same compound?
A: The EC50 was 4.3 nM.

Q: And the IC50 (pCH0.6.c/2633)?
A: The IC50 was 1.9 ± 0.3 nM.

Q: And the IC50 ([3]; CC101.19 cl.7 (AD101 resistant))?
A: The IC50 was 32.5 nM.

Q: And the IC90 ([3]; Human immunodeficiency virus 1)?
A: Its IC90 is 296 nM.

Q: And the IC50 ([3]; Human immunodeficiency virus 1, CC101.19 cl.7 (AD101 resistant))?
A: The IC50 was under 40 nM.
